# Literature values in patent US12668568B2, “Adamantanyl-substituted benzamide compounds and their use as P2X7 receptor antagonists” (The University of Sydney, priority 2018, dated 2026).
# Settings: literature log D7.4 values; cited from earlier work
row,Structure (SMILES),log D7.4 of calibration standards
1,CC(C)=O [acetone],−0.24
2,Nc1ccccc1 [aniline],0.90
3,c1ccc(N(c2ccccc2)c2ccccc2)cc1 [triphenylamine],5.74
